Test results published in patent US9340577B2, “HLA binding motifs and peptides and their uses” (priority 1992, dated 2016).
No end group written: not given here.

Assays:
Experiment in all cases: biochemical
[1] = biological target: DRB1*1101 (Homo sapiens, UniProt P01903+P01911, A100R/A169T/A87E/I96F/K41T/L162R/M171V/P40S/Q125H/Q178H/Q39Y/Q99D/R42S/S66Y/T262R/V115G/W38E); conditions: Binding affinity DRB1 *1101
[2] = biological target: DRB1*1302 (Homo sapiens, UniProt P01903+P01911, A100E/A169T/K41T/L162R/M171V/P40S/Q125H/Q178H/Q39Y/Q99D/R42S/S66N/T262R/V115G/W38E/Y61H); format: binding
[3] = biological target: DR1 (DRB1*0101) (Homo sapiens, UniProt P01903+P01911, A100R/D57E/F55L/F60I/F76Y/I96L/L162R/M171V/P40L/Q125E/R42F/V115G/Y59C); format: binding
[4] = biological target: DR4w4 (DRB1*0401) (Homo sapiens, UniProt P01903+P01911, A100K/A169T/F76Y/I96L/K127E/L162R/M171V/N62H/P40V/Q125Y/R42H/S133A/S149N/S66Y/V115G/V209L/W38E); format: binding
[5] = biological target: DRB1*0901 (Homo sapiens, UniProt P01903+P01911, A100R/A103E/D57H/D86V/F55Y/F60I/F76Y/I96F/K127E/L162R/M171V/P40D/Q125H/Q99R/R33Q/R42F/S133A/S66N/T210M/V115G/W38K/Y107V/Y59G/Y89S); format: binding
[6] = biological target: DRB1*0301 (Homo sapiens, UniProt P01903+P01911, A100K/A102G/A103R/A169T/F55Y/I96L/K41T/L162R/M171V/P40S/Q125H/Q178H/Q39Y/R42S/S66N/T106N/T262R/W38E/Y61H); format: binding
[7] = biological target: DRB1*1201 (Homo sapiens, UniProt P01903+P01911, A100R/A169T/D57E/D86V/F55L/H45Y/K41T/L162R/M171V/P40S/Q125H/Q178H/Q39Y/Q99D/R42G/S66L/T262R/V114A/V67L/W38E/Y59H/Y61H/Y89S); format: binding
[8] = biological target: DRB1*0405 (Homo sapiens, UniProt P01903+P01911, A100R/A169T/D86S/F76Y/I96L/K127E/L162R/M171V/N62H/P40V/Q125Y/R42H/S133A/S149N/S66Y/V115G/V209L/W38E); format: binding
[9] = biological target: DRB5*0101 (Homo sapiens, UniProt P01903+Q30154); conditions: Binding affinity DRB5 *0101
[10] = biological target: DRB4*0101 (Homo sapiens, UniProt P01903+P13762, G164S); format: binding
[11] = biological target: DRB1*0802 (Homo sapiens, UniProt P01903+P01911, A100R/A103L/A169T/F76Y/H45Y/I96F/K41T/L162R/M171V/P40S/Q125H/Q178H/Q39Y/Q99D/R218S/R42G/S66Y/V115G/W38E); format: binding
[12] = biological target: DRB1*1501 (Homo sapiens, UniProt P01903+P01911); format: binding
[13] = biological target: DR7 (DRB1*0701) (Homo sapiens, UniProt P01903+P01911, A100R/A102G/A103Q/D57E/D86V/E43K/F76Y/K127E/L162R/M171V/P40G/Q125H/Q99D/R33Q/R42Y/R54Q/S133A/S66F/T210M/V115G/Y107V/Y59L/Y89S); format: binding

Sequence of DRB1*1302 (P01903 26-254 limits assumed, other chains not shown): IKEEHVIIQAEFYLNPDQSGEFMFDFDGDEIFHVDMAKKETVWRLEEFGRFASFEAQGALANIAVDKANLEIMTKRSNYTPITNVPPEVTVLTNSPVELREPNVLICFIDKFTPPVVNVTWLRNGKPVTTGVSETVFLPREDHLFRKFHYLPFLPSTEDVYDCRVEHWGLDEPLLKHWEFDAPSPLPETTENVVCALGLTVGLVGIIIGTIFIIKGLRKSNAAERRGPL
Sequence of DRB1*1101 (P01903 26-254 limits assumed, other chains not shown): as above
Sequence of DRB1*0301 (P01903 26-254 limits assumed, other chains not shown): as above

CC[C@H](C)[C@H](NC(=O)[C@H](Cc1c[nH]cn1)NC(=O)[C@H](C)NC(=O)[C@H](Cc1ccc(O)cc1)NC(=O)[C@H](CC(C)C)NC(=O)[C@@H](NC(=O)[C@H](C)NC(=O)[C@@H]1CCCN1C(=O)[C@H](CCCCN)NC(=O)[C@@H](NC(=O)[C@H](CC(C)C)NC(=O)[C@@H](NC(=O)[C@H](CCCCN)NC(=O)[C@@H](N)Cc1ccccc1)[C@@H](C)O)[C@@H](C)CC)[C@@H](C)O)C(=O)N[C@@H](CCC(N)=O)C(=O)O [Peptide 89.0082]
IC50 [1]: 0.0055 µM | IC50 [2]: 0.045 µM | IC50 [3]: 0.023 µM | IC50 [4]: 0.123 µM | IC50 [5]: 0.57 µM | IC50 [6]: 0.825 µM | IC50 [7]: 0.084 µM | IC50 [8]: 0.014 µM | IC50 [9]: 2.43 µM | IC50 [10]: 0.02 µM

AFQVIELQMALETLN [Peptide 90.0024]
IC50 [1]: 3.34 µM | IC50 [11]: 4.95 µM | IC50 [2]: 0.089 µM | IC50 [3]: 0.029 µM | IC50 [6]: 1.28 µM | IC50 [7]: 0.466 µM | IC50 [8]: 2.1 µM | IC50 [9]: > 20 µM | IC50 [12]: 0.378 µM | IC50 [10]: 0.011 µM

AKALQAIELQMMLET [Peptide 89.0171]
IC50 [1]: 2.4 µM | IC50 [11]: > 20 µM | IC50 [3]: 0.016 µM | IC50 [4]: 0.078 µM | IC50 [5]: 0.084 µM | IC50 [6]: 1.46 µM | IC50 [7]: 0.243 µM | IC50 [8]: 0.798 µM | IC50 [9]: 0.284 µM | IC50 [13]: 0.051 µM | IC50 [12]: 8.48 µM | IC50 [10]: 2.55 µM

ETCMLIEPPKLRSSV [Peptide 89.0084]
IC50 [1]: 0.123 µM | IC50 [11]: 1.35 µM | IC50 [2]: 0.481 µM | IC50 [3]: 0.035 µM | IC50 [5]: 5.12 µM | IC50 [6]: 0.359 µM | IC50 [7]: 0.708 µM | IC50 [8]: 0.906 µM | IC50 [13]: 0.756 µM | IC50 [10]: 0.048 µM

GERLEVDTELSPRLQ [Peptide 90.0048]
IC50 [1]: > 20 µM | IC50 [11]: > 20 µM | IC50 [2]: > 20 µM | IC50 [3]: > 20 µM | IC50 [5]: > 20 µM | IC50 [6]: 0.015 µM | IC50 [7]: > 20 µM | IC50 [8]: > 20 µM | IC50 [9]: > 20 µM | IC50 [13]: > 20 µM | IC50 [12]: > 20 µM | IC50 [10]: > 20 µM

GKSYFGMSLIQFLKG [Peptide 89.0075]
IC50 [1]: 2.96 µM | IC50 [11]: 1.56 µM | IC50 [3]: 0.014 µM | IC50 [4]: 0.456 µM | IC50 [5]: 0.073 µM | IC50 [6]: 8.83 µM | IC50 [7]: 0.499 µM | IC50 [8]: 1.31 µM | IC50 [9]: 0.411 µM | IC50 [10]: 0.372 µM

HKAIELQMALKGLAQ [Peptide 90.0004]
IC50 [1]: 0.01 µM | IC50 [11]: 0.038 µM | IC50 [3]: 0.0021 µM | IC50 [4]: 0.0067 µM | IC50 [6]: 0.032 µM | IC50 [7]: 0.293 µM | IC50 [8]: 3.31 µM | IC50 [9]: 0.057 µM | IC50 [12]: 6.58 µM | IC50 [10]: 0.001 µM

IIHLKGDANILKCLR [Peptide 90.0197]
IC50 [11]: 2.99 µM | IC50 [2]: 0.066 µM | IC50 [3]: 0.069 µM | IC50 [4]: 0.064 µM | IC50 [5]: 14.1 µM | IC50 [6]: 0.026 µM | IC50 [7]: 5.03 µM | IC50 [8]: 6.5 µM | IC50 [9]: 2.46 µM | IC50 [13]: 3.05 µM | IC50 [10]: 0.713 µM

KNRLTVAKLMSNLLS [Peptide 89.0064]
IC50 [1]: 1.58 µM | IC50 [11]: 0.58 µM | IC50 [2]: 0.014 µM | IC50 [3]: 0.0056 µM | IC50 [4]: 0.021 µM | IC50 [5]: 2.68 µM | IC50 [6]: 9.72 µM | IC50 [7]: 0.089 µM | IC50 [8]: 0.012 µM | IC50 [13]: 0.0028 µM | IC50 [10]: 0.025 µM

KTLIKPATLYAHIQC [Peptide 89.0083]
IC50 [1]: 0.035 µM | IC50 [11]: 0.231 µM | IC50 [3]: 0.06 µM | IC50 [6]: 1.22 µM | IC50 [7]: 0.422 µM | IC50 [8]: 0.841 µM | IC50 [9]: 5.23 µM | IC50 [13]: 0.308 µM | IC50 [12]: 0.654 µM | IC50 [10]: 0.051 µM

LKAICIEKQSRAAKR [Peptide 90.0032]
IC50 [1]: 0.545 µM | IC50 [11]: 0.273 µM | IC50 [3]: 0.259 µM | IC50 [4]: 0.307 µM | IC50 [5]: 13.4 µM | IC50 [6]: 0.021 µM | IC50 [7]: 11.8 µM | IC50 [8]: > 20 µM | IC50 [12]: 2.06 µM | IC50 [10]: 0.029 µM
